PubChem BioAssay (NCI)
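Growth conditions: 96-well plates. Treatment: test compound, 48 hours, 5 concentrations. Analysis: linear interpolation between bracketing concentrations; unreached endpoints set to highest concentration. TGI: concentration producing complete growth inhibition.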

Experiments:
Experiment in all cases: NCI anticancer screen, dose series, 48 h
OVCAR-8 ovarian = test system: OVCAR-8 ovarian
SNB-78 CNS = test system: SNB-78 CNS
NCI-H226 lung = test system: NCI-H226 lung
SN12C renal = test system: SN12C renal
DMS 114 small cell lung = test system: DMS 114 small cell lung
RXF 393 renal = test system: RXF 393 renal
UACC-257 melanoma = test system: UACC-257 melanoma
786-0 renal = test system: 786-0 renal
SNB-75 CNS = test system: SNB-75 CNS
MALME-3M melanoma = test system: MALME-3M melanoma
SK-MEL-28 melanoma = test system: SK-MEL-28 melanoma
SK-MEL-5 melanoma = test system: SK-MEL-5 melanoma
OVCAR-4 ovarian = test system: OVCAR-4 ovarian
HCC-2998 colon = test system: HCC-2998 colon
SF-268 CNS = test system: SF-268 CNS
OVCAR-3 ovarian = test system: OVCAR-3 ovarian
HT29 colon = test system: HT29 colon
COLO 205 colon = test system: COLO 205 colon
IGROV1 ovarian = test system: IGROV1 ovarian
SK-OV-3 ovarian = test system: SK-OV-3 ovarian
SK-MEL-2 melanoma = test system: SK-MEL-2 melanoma
UACC-62 melanoma = test system: UACC-62 melanoma
MOLT-4 leukemia = test system: MOLT-4 leukemia
OVCAR-5 ovarian = test system: OVCAR-5 ovarian
NCI-H23 lung = test system: NCI-H23 lung
TK-10 renal = test system: TK-10 renal
EKVX NSCLC = test system: EKVX NSCLC
U251 CNS = test system: U251 CNS
HCT-15 colon = test system: HCT-15 colon
RPMI-8226 leukemia = test system: RPMI-8226 leukemia
M19-MEL melanoma = test system: M19-MEL melanoma
SW-620 colon = test system: SW-620 colon
KM12 colon = test system: KM12 colon
K-562 leukemia = test system: K-562 leukemia
UO-31 renal = test system: UO-31 renal
NCI-H522 lung = test system: NCI-H522 lung
A549 NSCLC = test system: A549 NSCLC
KM20L2 colon = test system: KM20L2 colon
DMS 273 small cell lung = test system: DMS 273 small cell lung
SNB-19 CNS = test system: SNB-19 CNS
LXFL 529 NSCLC = test system: LXFL 529 NSCLC
HCT-116 colon = test system: HCT-116 colon
HOP-92 NSCLC = test system: HOP-92 NSCLC
SF-295 CNS = test system: SF-295 CNS
SF-539 CNS = test system: SF-539 CNS
HL-60(TB) leukemia = test system: HL-60(TB) leukemia
HOP-62 NSCLC = test system: HOP-62 NSCLC
CCRF-CEM leukemia = test system: CCRF-CEM leukemia
SR leukemia = test system: SR leukemia
M14 melanoma = test system: M14 melanoma
NCI-H460 lung = test system: NCI-H460 lung
ACHN renal = test system: ACHN renal
T-47D breast = test system: T-47D breast
DU-145 prostate = test system: DU-145 prostate
A498 renal = test system: A498 renal
NCI/ADR-RES ovarian = test system: NCI/ADR-RES ovarian
MCF7 breast = test system: MCF7 breast
BT-549 breast = test system: BT-549 breast
MDA-MB-435 = test system: MDA-MB-435
LOX IMVI melanoma = test system: LOX IMVI melanoma
MDA-N = test system: MDA-N
HS 578T breast = test system: HS 578T breast
CAKI-1 renal = test system: CAKI-1 renal
MDA-MB-231 breast = test system: MDA-MB-231 breast
PC-3 prostate = test system: PC-3 prostate

Measured: TGI

CCOC(=O)c1cnc2oc(-c3ccc(OC)cc3)nn2c1=O
not listed: HL-60(TB) leukemia | HOP-62 NSCLC | CCRF-CEM leukemia | SR leukemia | M14 melanoma | NCI-H460 lung | ACHN renal | T-47D breast | DU-145 prostate | A498 renal | NCI/ADR-RES ovarian | MCF7 breast | BT-549 breast | MDA-MB-435 | LOX IMVI melanoma | MDA-N | HS 578T breast | CAKI-1 renal | MDA-MB-231 breast | PC-3 prostate
> 100 µM: all other assays above

COc1ccc(C2C(Cl)C(=O)N2NC(=O)c2ccccc2O)cc1 (stereo not drawn)
not listed: SNB-78 CNS | NCI-H226 lung | 786-0 renal | HCC-2998 colon | OVCAR-5 ovarian | HCT-15 colon | DMS 273 small cell lung | ACHN renal | T-47D breast | DU-145 prostate | A498 renal | NCI/ADR-RES ovarian | MCF7 breast | BT-549 breast | MDA-MB-435 | LOX IMVI melanoma | MDA-N | HS 578T breast | CAKI-1 renal | MDA-MB-231 breast | PC-3 prostate
> 100 µM: all other assays above

Cc1ccc(N=Nc2c(O)c(S(=O)(=O)O)cc3cc(S(=O)(=O)O)ccc23)c(C)c1
not listed: SNB-78 CNS | DMS 114 small cell lung | M19-MEL melanoma | KM20L2 colon | DMS 273 small cell lung | LXFL 529 NSCLC
> 100 µM: all other assays above
